Experimental data as given in the NIST ThermoML archive (doi:10.1016/j.fluid.2008.04.022).
± gives the expanded uncertainty stated by the source.

Assay: xn = mol fraction of the nth substance listed
Settings: Fluid (supercritical or subcritical phases), isochoric method

FC(C(F)(F)F)C(F)(F)F [1,1,1,2,3,3,3-heptafluoropropane] + CCF
Settings | mass density [kg/m3]
318.18 K, 961.3 kPa, x2 = 0.8032 | 441.9 ± 2.2
323.18 K, 987.1 kPa, x2 = 0.8032 | 441.8 ± 2.2
323.19 K, 1112.7 kPa, x2 = 0.739 | 520.8 ± 2.4
328.18 K, 1011.6 kPa, x2 = 0.8032 | 441.8 ± 2.2
328.19 K, 1144.3 kPa, x2 = 0.739 | 520.7 ± 2.4
333.18 K, 1034.4 kPa, x2 = 0.8032 | 441.7 ± 2.2
333.18 K, 1439.9 kPa, x2 = 0.8036 | 671.6 ± 2.6
333.19 K, 1173.6 kPa, x2 = 0.739 | 520.7 ± 2.4
333.19 K, 1516.7 kPa, x2 = 0.811 | 717.6 ± 2.9
338.18 K, 1058.6 kPa, x2 = 0.8032 | 441.7 ± 2.1
338.18 K, 1369.5 kPa, x2 = 0.44 | 660.6 ± 3
338.18 K, 1481.2 kPa, x2 = 0.8036 | 671.6 ± 2.7
338.18 K, 1560.1 kPa, x2 = 0.811 | 717.5 ± 2.9
338.19 K, 1202.9 kPa, x2 = 0.739 | 520.7 ± 2.4
343.18 K, 1231.3 kPa, x2 = 0.739 | 520.6 ± 2.4
343.18 K, 1519.5 kPa, x2 = 0.8036 | 671.5 ± 2.6
343.18 K, 1601.7 kPa, x2 = 0.811 | 717.5 ± 2.8
343.19 K, 1081.5 kPa, x2 = 0.8032 | 441.7 ± 2.1
343.19 K, 1413.6 kPa, x2 = 0.44 | 660.5 ± 3
343.19 K, 1712.3 kPa, x2 = 0.627 | 835.4 ± 3.2
348.15 K, 2241.8 kPa, x2 = 0.8392 | 1112.1 ± 3.9
348.18 K, 1104.1 kPa, x2 = 0.8032 | 441.6 ± 2
348.18 K, 1260.2 kPa, x2 = 0.739 | 520.6 ± 2.4
348.18 K, 1453.8 kPa, x2 = 0.44 | 660.5 ± 3
348.18 K, 1557.8 kPa, x2 = 0.8036 | 671.4 ± 2.6
348.19 K, 1766.5 kPa, x2 = 0.627 | 835.3 ± 3.1
348.2 K, 1643.2 kPa, x2 = 0.811 | 717.4 ± 2.8
353.15 K, 2312 kPa, x2 = 0.8392 | 1112 ± 3.9
353.18 K, 1127 kPa, x2 = 0.8032 | 441.6 ± 2
353.18 K, 1287.6 kPa, x2 = 0.739 | 520.5 ± 2.3
353.19 K, 1493.5 kPa, x2 = 0.44 | 660.4 ± 3
353.19 K, 1594.5 kPa, x2 = 0.8036 | 671.4 ± 2.6
353.19 K, 1683.4 kPa, x2 = 0.811 | 717.3 ± 2.7
353.19 K, 1818 kPa, x2 = 0.627 | 835.2 ± 3.1
358.17 K, 1314.9 kPa, x2 = 0.739 | 520.5 ± 2.3
358.17 K, 1532 kPa, x2 = 0.44 | 660.3 ± 3
358.18 K, 1148.5 kPa, x2 = 0.8032 | 441.6 ± 2
358.18 K, 1631.3 kPa, x2 = 0.8036 | 671.3 ± 2.5
358.19 K, 1722.8 kPa, x2 = 0.811 | 717.3 ± 2.7
358.19 K, 1868.1 kPa, x2 = 0.627 | 835.2 ± 3
358.23 K, 2381.4 kPa, x2 = 0.8392 | 1111.9 ± 3.8
363.14 K, 2448.2 kPa, x2 = 0.8392 | 1111.8 ± 3.8
363.19 K, 1171.1 kPa, x2 = 0.8032 | 441.5 ± 1.9
363.19 K, 1569.8 kPa, x2 = 0.44 | 660.3 ± 3
363.19 K, 1761.7 kPa, x2 = 0.811 | 717.2 ± 2.7
363.19 K, 1917 kPa, x2 = 0.627 | 835.1 ± 3
363.2 K, 2459.6 kPa, x2 = 0.4954 | 1290.6 ± 4.5
363.21 K, 1667 kPa, x2 = 0.8036 | 671.3 ± 2.5
363.31 K, 1342.8 kPa, x2 = 0.739 | 520.4 ± 2.2
368.14 K, 1369.4 kPa, x2 = 0.739 | 520.4 ± 2.2
368.14 K, 1800.8 kPa, x2 = 0.811 | 717.2 ± 2.6
368.16 K, 1608 kPa, x2 = 0.44 | 660.2 ± 2.9
368.16 K, 1966 kPa, x2 = 0.627 | 835 ± 3
368.17 K, 1703 kPa, x2 = 0.8036 | 671.2 ± 2.5
368.18 K, 2515 kPa, x2 = 0.8392 | 1111.7 ± 3.8
368.18 K, 2548.7 kPa, x2 = 0.4954 | 1290.5 ± 4.4
368.29 K, 1193.9 kPa, x2 = 0.8032 | 441.5 ± 1.9
373.04 K, 1215 kPa, x2 = 0.8032 | 441.5 ± 1.9
373.15 K, 1644.9 kPa, x2 = 0.44 | 660.2 ± 2.8
373.16 K, 1839.4 kPa, x2 = 0.811 | 717.1 ± 2.6
373.18 K, 1396.2 kPa, x2 = 0.739 | 520.4 ± 2.2
373.18 K, 1738.7 kPa, x2 = 0.8036 | 671.2 ± 2.5
373.18 K, 2580 kPa, x2 = 0.8392 | 1111.6 ± 3.8
373.18 K, 2636.7 kPa, x2 = 0.4954 | 1290.4 ± 4.4
373.19 K, 2014.5 kPa, x2 = 0.627 | 835 ± 2.9
376.18 K, 2687.7 kPa, x2 = 0.4954 | 1290.3 ± 4.3
378.17 K, 2644.8 kPa, x2 = 0.8392 | 1111.5 ± 3.8
378.23 K, 1774.6 kPa, x2 = 0.8036 | 671.1 ± 2.4
378.23 K, 2063.3 kPa, x2 = 0.627 | 834.9 ± 2.9
378.25 K, 1422.5 kPa, x2 = 0.739 | 520.3 ± 2.1
378.25 K, 1681.3 kPa, x2 = 0.44 | 660.1 ± 2.8
378.25 K, 1876.9 kPa, x2 = 0.811 | 717 ± 2.6
378.29 K, 1236.9 kPa, x2 = 0.8032 | 441.4 ± 1.8
379.23 K, 2739.1 kPa, x2 = 0.4954 | 1290.3 ± 4.3
382.19 K, 2788.4 kPa, x2 = 0.4954 | 1290.2 ± 4.3
383.08 K, 1448.6 kPa, x2 = 0.739 | 520.3 ± 2.1
383.17 K, 2708.3 kPa, x2 = 0.8392 | 1111.4 ± 3.7
383.2 K, 2110.6 kPa, x2 = 0.627 | 834.8 ± 2.9
383.21 K, 1718.2 kPa, x2 = 0.44 | 660.1 ± 2.7
383.21 K, 1809.6 kPa, x2 = 0.8036 | 671.1 ± 2.4
383.21 K, 1915.8 kPa, x2 = 0.811 | 717 ± 2.6
383.22 K, 1259.2 kPa, x2 = 0.8032 | 441.4 ± 1.8
385.22 K, 2838.9 kPa, x2 = 0.4954 | 1290.1 ± 4.3
388.17 K, 2771 kPa, x2 = 0.8392 | 1111.3 ± 3.7
388.18 K, 1279.7 kPa, x2 = 0.8032 | 441.3 ± 1.8
388.18 K, 2156.7 kPa, x2 = 0.627 | 834.8 ± 2.9
388.19 K, 1754.7 kPa, x2 = 0.44 | 660 ± 2.7
388.19 K, 1844.5 kPa, x2 = 0.8036 | 671 ± 2.4
388.19 K, 1953.2 kPa, x2 = 0.811 | 716.9 ± 2.5
388.19 K, 2887.9 kPa, x2 = 0.4954 | 1290.1 ± 4.3
388.32 K, 1475.8 kPa, x2 = 0.739 | 520.2 ± 2.1
391.22 K, 2937.4 kPa, x2 = 0.4954 | 1290 ± 4.2
393.18 K, 1501.3 kPa, x2 = 0.739 | 520.2 ± 2
393.18 K, 1790.2 kPa, x2 = 0.44 | 660 ± 2.6
393.18 K, 1879 kPa, x2 = 0.8036 | 670.9 ± 2.4
393.18 K, 1990.4 kPa, x2 = 0.811 | 716.9 ± 2.5
393.18 K, 2203.2 kPa, x2 = 0.627 | 834.7 ± 2.8
393.21 K, 1301.7 kPa, x2 = 0.8032 | 441.3 ± 1.8
393.22 K, 2834 kPa, x2 = 0.8392 | 1111.2 ± 3.7
394.18 K, 2985.9 kPa, x2 = 0.4954 | 1289.9 ± 4.2
397.15 K, 3033.4 kPa, x2 = 0.4954 | 1289.9 ± 4.2
398.16 K, 1322.9 kPa, x2 = 0.8032 | 441.3 ± 1.8
398.16 K, 1912.8 kPa, x2 = 0.8036 | 670.9 ± 2.4
398.16 K, 2248.3 kPa, x2 = 0.627 | 834.6 ± 2.8
398.17 K, 1527.2 kPa, x2 = 0.739 | 520.1 ± 2
398.17 K, 1825.4 kPa, x2 = 0.44 | 659.9 ± 2.6
398.17 K, 2027.2 kPa, x2 = 0.811 | 716.8 ± 2.5
398.21 K, 2896 kPa, x2 = 0.8392 | 1111.2 ± 3.7
400.15 K, 3082 kPa, x2 = 0.4954 | 1289.8 ± 4.2
403.14 K, 1344.2 kPa, x2 = 0.8032 | 441.2 ± 1.8
403.15 K, 1946.2 kPa, x2 = 0.8036 | 670.8 ± 2.3
403.16 K, 1553.2 kPa, x2 = 0.739 | 520.1 ± 1.9
403.16 K, 1860.1 kPa, x2 = 0.44 | 659.8 ± 2.5
403.17 K, 2293.4 kPa, x2 = 0.627 | 834.5 ± 2.8
403.19 K, 2956.6 kPa, x2 = 0.8392 | 1111.1 ± 3.6
403.19 K, 3129.8 kPa, x2 = 0.4954 | 1289.8 ± 4.2
403.2 K, 2063.9 kPa, x2 = 0.811 | 716.8 ± 2.5
